The values that follow come from patent US7915276B2, “Berberrubine derivatives having antifungal activities” (priority 2006, dated 2011).

In data set [1] the target is T1, chitin synthase 1 of Candida albicans chs2 Δ chs 3 Δ (Candida albicans, UniProt P23316).
T1 construct: Crude enzyme was prepared using the Candida albicans chs2 Δ chs 3 Δ mutant; endogenous in cells; host or cells: Candida albicans chs2Δ/chs2Δ chs3Δ/chs3Δ mutant; 130,000 x g membrane pellet
Description: In vitro enzyme assay for chitin synthase 1 of Candida albicans (enzyme 1). In kind it is biochemical. The note with it: relative to polyoxin D (50% inhibitory activity = value 5). In short, it runs like this: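 Trypsin-activated crude membrane chitin synthase 1 from C. albicans chs2Δ chs3Δ was incubated 90 min at 30 °C with 1.1 mM UDP-[14C]GlcNAc and 2 mM cobalt acetate in Tris-HCl pH 7.5. Filtered TCA precipitate was counted by scintillation; values are scores 1–8 against polyoxin D (5 = same concentration).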

Data set [2] concerns the target T2, chitin synthase 2 of Saccharomyces cerevisiae ECY38-38A(pAS6) (Saccharomyces cerevisiae, UniProt P14180).
T2 construct: made in house; host or cells: Saccharomyces cerevisiae ECY38-38A (chs1-23 chs2::LEU2 cal1/csd2) carrying plasmid pAS6, grown in galactose medium; 130,000 x g membrane pellet
Description: In vitro enzyme assay for chitin synthase 2 of Saccharomyces cerevisiae (enzyme 2). In kind it is biochemical. The following applies: relative to polyoxin D (50% inhibitory activity = value 5). In short, it runs like this:
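Values are scores: 5 means 50% inhibition at the same concentration as polyoxin D, lower scores 2- to 16-fold higher concentration, higher scores ½ to ⅛. Radiolabel from 1.1 mM UDP-[14C]-GlcNAc was incorporated into TCA-insoluble chitin over 90 min at 30 °C (pH 7.5 Tris, 2 mM Co2+). The enzyme was a trypsin-activated membrane fraction from CHS2-only S. cerevisiae ECY38-38A(pAS6).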

Data set [3] concerns Aspergillus flavus ATCC 64025. Description: In vitro antifungal activity (MIC), NCCLS method. In kind it is cell-based. The following applies: 48 hours. In short, it runs like this: (§1)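 MIC read as the lowest concentration inhibiting growth after 48 hours of culture. Setup follows NCCLS: compound diluted two-fold and inoculated at 5×10^2 to 2.5×10^3 cell/mL final.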
Data set [4] relates to Aspergillus fumigatus ATCC 16424. Briefly: In vitro antifungal activity (MIC), NCCLS method. The note with it: 48 hours. It counts as cell-based. Put shortly: as §1
For data set [5], the system named is Aspergillus terreus ATCC 46941. Briefly: In vitro antifungal activity (MIC), NCCLS method. It counts as cell-based. The note with it: 48 hours. In short, it runs like this:
as §1

Data set [6] has as its system Candida albicans A207 (clinical isolate). Briefly: In vitro antifungal activity (MIC), NCCLS method. In kind it is cell-based. The note with it: 48 hours. Put shortly:
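Test samples were serially diluted two-fold, then inoculated with fungus to a final cell density of 5×10^2 to 2.5×10^3 cell/mL, following the NCCLS method. Plates were cultured for 48 hours and the minimum inhibitory concentration recorded.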

Data set [7] has as its system Candida albicans ATCC 10231. Briefly: In vitro antifungal activity (MIC), NCCLS method. It counts as cell-based. The following applies: 48 hours. Put shortly: (§2)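 Broth MIC by NCCLS two-fold dilution, final inoculum 5×10^2 to 2.5×10^3 cell/mL. Candida and Mucor strains incubated 48 hours.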
The test system of data set [8] is Candida glabrata ATCC 48435. Description: In vitro antifungal activity (MIC), NCCLS method. It counts as cell-based. The note with it: Candida glabrata ATCC 48435; 48 hours. Put shortly: as §2
In a further data set the test system is Candida krusei ATCC 6258. Description: In vitro antifungal activity (MIC), NCCLS method. In kind it is cell-based. The following applies: 48 hours. In short, it runs like this: as §2
For data set [9], the system named is Candida lusitaniae ATCC 42720. Briefly: In vitro antifungal activity (MIC), NCCLS method. In kind it is cell-based. The note with it: 48 hours. In short, it runs like this:
as §2

Data set [10] deals with Candida parapsilosis ATCC 34136. Description: In vitro antifungal activity (MIC), NCCLS method. In kind it is cell-based. The following applies: Candida parapsilosis ATCC 34136; 48 hours. In short, it runs like this: as §2
In data set [11] the test system is Candida tropicalis ATCC 13803. Briefly: In vitro antifungal activity (MIC), NCCLS method. In kind it is cell-based. The note with it: 48 hours. In short, it runs like this: as §2
Data set [12] has as its system Cryptococcus neoformans ATCC 36556. Briefly: In vitro antifungal activity (MIC), NCCLS method. In kind it is cell-based. The following applies: RPMI 1640 medium, 72 hours. In short, it runs like this:
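Broth microdilution per NCCLS: two-fold serial dilutions of test compound inoculated with fungal suspension at a final 5×10^2 to 2.5×10^3 cell/mL. Strains other than Cryptococcus neoformans were incubated 48 hours before MIC reading.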

In data set [13] the test system is Mucor ramosissimus ATCC 90286. Description: In vitro antifungal activity (MIC), NCCLS method. It counts as cell-based. The following applies: 48 hours. In short, it runs like this: as §2
Another data set is described as follows: Acute toxicity in mice. The following applies: for Acute toxicity LD50: ICR mouse, male. It counts as in vivo, ICR mice. As to the method:
Each compound was suspended in 1% carboxymethylcellulose (CMC), and orally and abdominally administered to 6-week-old male ICR mice. […] Then, an autopsy was performed on the mice.

Another data set relates to human pathogenic fungi. Briefly: Antifungal activity against human pathogenic fungi (summary statements). It counts as cell-based. The source says:
Candida albicans ATCC 10231, Candida lusitaniae ATCC 42720, Candida krusei ATCC 6258, Candida tropicalis ATCC 13803, Candida glabrata ATCC 48435, Candida parapsilosis ATCC 34136, Cryptococcus neoformans ATCC 36556, Aspergillus fumigatus ATCC 16424, Aspergillus flavus ATCC 64025, Aspergillus terreus ATCC 46941 and Mucor ramosissimus ATCC 90286 strains for the MIC (minimum inhibitory concentration) measurement were obtained from ATCC (American Type Culture Collection) in the U.S. The Candida albicans A207(clinical isolate) strain was used by isolating it from the patients.
The determination of MIC was performed according to the NCCLS (National Committee for Clinical Laboratory Standard) method. Each test sample solution was diluted two-fold and inoculated with a fungal suspension to reach a final inoculum size of 5×10^2 to 2.5×10^3 cell/mL. The Cryptococcus neoformans strain was cultured in the RPMI 1640 medium for 72 hours. Other strains were cultured for 48 hours.

The next data set has as its system chitin synthases. Description: Inhibitory activity against the chitin synthases (summary statements). In kind it is biochemical. The source says: The inhibitory activities against the chitin synthase 1 of Candida albicans chs2 Δ chs 3 Δ (abbreviated as ‘enzyme 1’) and the chitin synthase 2 of Saccharomyces cerevisiae ECY38-38A(pAS6)(abbreviated as ‘enzyme 2’) was examined for compound Nos. 1 to 70 compound and polyoxin D, a positive control compound.
The inhibitory activity against the chitin synthase 1 prepared from Candida albicans and the chitin synthase 2 prepared from Saccharomyces cerevisiae were examined as follows. A reaction mixture containing 32 mM Tris-HCl (pH 7.5), 2 mM cobalt acetate, 1.1 mM UDP-[U-^14C]-N-acetyl-d-glucosamine (GlcNAc) (400,000 cpm/μmol), 2 μL of trypsin (0.75 mg/mL), 20 μL of each crude enzyme and 14 μL of each test sample was kept at 30° C. for 15 minutes to activate the enzyme. Then, 2 μL of trypsin inhibitor (1.5 mg/mL) was added and the mixture was kept in an ice bath for 10 minutes to deactivate trypsin. 2 μL of 0.8 M N-acetyl-d-glucosamine was added to a total volume of 50 μL and reaction was performed at 30° C. for 90 minutes. The reaction was stopped using 1 mL of 10% TCA solution and the reaction solution was filtered with a GF/C filter and dried at room temperature. After adding 3 mL of a scintillation cocktail solution, the amount of isotopes was measured using a liquid scintillation counter. Percentage inhibition against each enzyme was calculated by the following Equation 1.

T2 sequence (P14180 whole entry): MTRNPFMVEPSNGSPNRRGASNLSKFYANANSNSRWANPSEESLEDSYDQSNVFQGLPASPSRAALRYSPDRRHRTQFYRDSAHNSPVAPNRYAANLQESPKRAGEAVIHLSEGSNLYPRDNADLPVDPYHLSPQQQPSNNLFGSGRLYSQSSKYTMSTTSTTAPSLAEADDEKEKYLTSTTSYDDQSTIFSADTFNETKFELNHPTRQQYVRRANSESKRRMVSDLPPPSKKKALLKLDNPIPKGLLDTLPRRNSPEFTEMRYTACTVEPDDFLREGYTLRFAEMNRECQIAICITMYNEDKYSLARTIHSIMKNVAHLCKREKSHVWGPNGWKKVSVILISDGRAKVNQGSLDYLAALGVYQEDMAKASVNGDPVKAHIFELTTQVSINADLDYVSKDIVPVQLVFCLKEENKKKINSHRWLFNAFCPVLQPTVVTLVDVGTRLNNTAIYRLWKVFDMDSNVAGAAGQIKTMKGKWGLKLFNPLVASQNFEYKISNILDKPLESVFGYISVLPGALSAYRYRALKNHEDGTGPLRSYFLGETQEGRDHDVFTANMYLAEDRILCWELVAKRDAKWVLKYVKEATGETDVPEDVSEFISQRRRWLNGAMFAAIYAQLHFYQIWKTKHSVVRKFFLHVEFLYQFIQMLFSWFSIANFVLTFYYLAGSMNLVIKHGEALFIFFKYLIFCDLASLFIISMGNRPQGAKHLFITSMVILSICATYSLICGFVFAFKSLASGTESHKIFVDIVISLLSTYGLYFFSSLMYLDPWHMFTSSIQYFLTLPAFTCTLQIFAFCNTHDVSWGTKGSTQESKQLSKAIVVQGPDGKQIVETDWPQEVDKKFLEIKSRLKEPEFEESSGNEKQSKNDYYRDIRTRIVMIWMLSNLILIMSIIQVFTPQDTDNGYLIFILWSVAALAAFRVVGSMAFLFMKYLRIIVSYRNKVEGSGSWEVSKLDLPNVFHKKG
T1 sequence (P23316 whole entry, stated change not applied): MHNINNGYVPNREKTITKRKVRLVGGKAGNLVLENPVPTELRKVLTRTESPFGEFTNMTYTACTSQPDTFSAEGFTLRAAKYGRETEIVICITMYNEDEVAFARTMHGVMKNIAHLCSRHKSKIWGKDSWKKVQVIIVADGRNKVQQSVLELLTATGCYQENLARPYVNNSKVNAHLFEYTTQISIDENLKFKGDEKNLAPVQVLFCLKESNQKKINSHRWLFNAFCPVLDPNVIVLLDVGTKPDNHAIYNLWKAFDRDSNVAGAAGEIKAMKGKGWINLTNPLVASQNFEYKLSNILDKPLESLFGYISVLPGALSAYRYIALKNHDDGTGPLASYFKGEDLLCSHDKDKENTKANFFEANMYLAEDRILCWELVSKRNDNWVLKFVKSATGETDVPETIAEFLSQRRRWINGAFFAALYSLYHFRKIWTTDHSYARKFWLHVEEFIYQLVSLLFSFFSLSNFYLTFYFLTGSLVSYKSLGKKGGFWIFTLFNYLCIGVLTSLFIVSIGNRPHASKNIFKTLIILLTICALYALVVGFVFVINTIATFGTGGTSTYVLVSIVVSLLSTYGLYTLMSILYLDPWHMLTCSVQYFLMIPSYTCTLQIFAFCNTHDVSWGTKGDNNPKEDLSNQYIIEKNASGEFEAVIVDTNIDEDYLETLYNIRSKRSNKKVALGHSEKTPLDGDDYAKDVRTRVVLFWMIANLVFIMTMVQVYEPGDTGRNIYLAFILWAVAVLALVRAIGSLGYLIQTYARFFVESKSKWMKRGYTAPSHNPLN

As to “13-(4-Isopropylbenzyl)-9-O-butylberberrubine chloride [Compound No. 50]”, the “Relative activity Enzyme 1” value in data set [1] is 4 (Compounds having the inhibitory activity at 2-fold, 4-fold, 8-fold and 16-fold higher concentrations than that of polyoxin D were given the values of 4, 3, 2 and 1, respectively). Also, the “Relative activity Enzyme 2” value in data set [2] is 7 (compounds having the inhibitory activity at ½, ¼ and ⅛ lower concentrations than that of polyoxin D were given the values of 6, 7 and 8, respectively). Moreover, the “MIC (minimum inhibitory concentration)” value worked out at 8 µg/mL in [3]; 2 µg/mL in [4]; 8 µg/mL in data set [5]; 0.5 µg/mL in data set [6]; 0.5 µg/mL in data set [7]; 4 µg/mL in data set [8]. In addition, the “MIC (minimum inhibitory concentration)” value worked out at 1 µg/mL with Candida krusei ATCC 6258; 0.5 µg/mL in data set [9]; 4 µg/mL in data set [10]; 0.25 µg/mL in [11]; 1 µg/mL in data set [12]; 4 µg/mL in [13]. In addition, the “Acute toxicity LD50” value in “Acute toxicity in mice” (abdominal) is given as >15 mg/kg; in “Acute toxicity in mice” (oral), >1000 mg/kg. In the data set on human pathogenic fungi, the “antifungal activities compared with amphotericin B (in words)” value is on record as “comparable to that of amphotericin B”. Also, in the data set on chitin synthases, the “inhibitory activities against the chitin synthases (in words)” value (shortened to “inhibitory activities”) is recorded as “exceptionally superior inhibitory activities”.
As for “13-(4-tert-Butylbenzyl)-9-O-butylberberrubine iodide [Compound No. 8]”, in [1], the “Relative activity Enzyme 1” value is 4 (Compounds having the inhibitory activity at 2-fold, 4-fold, 8-fold and 16-fold higher concentrations than that of polyoxin D were given the values of 4, 3, 2 and 1, respectively). Moreover, in [2], the “Relative activity Enzyme 2” value was 7 (compounds having the inhibitory activity at ½, ¼ and ⅛ lower concentrations than that of polyoxin D were given the values of 6, 7 and 8, respectively). Also, the “MIC (minimum inhibitory concentration)” value in data set [3] was found to be 8 µg/mL; in data set [4], 2 µg/mL; in [5], 8 µg/mL; in [6], 0.5 µg/mL; in data set [7], 0.5 µg/mL; in [8], 4 µg/mL. Moreover, the “MIC (minimum inhibitory concentration)” value against Candida krusei ATCC 6258 is 2 µg/mL; in data set [9] it was 1 µg/mL; in data set [10] it was 4 µg/mL; in data set [11], 0.25 µg/mL; in data set [12], 1 µg/mL; in data set [13] it was 4 µg/mL. For the same substance, the “Acute toxicity LD50” value in the data set “Acute toxicity in mice” (abdominal) is on record as >15 mg/kg; in “Acute toxicity in mice” (oral), >1000 mg/kg. Also, the deaths result in the data set “Acute toxicity in mice” (mice, oral administration dosage of 1,000 mg/kg) was “no case of death observed”. For the same substance, the Autopsy findings entry is “Nothing” in “Acute toxicity in mice” (mouse, in vivo) and “Nothing” in the data set “Acute toxicity in mice” (mouse, in vivo, po). In addition, the “general symptoms and body weight” value in the data set “Acute toxicity in mice” (mouse, in vivo) was “no abnormalities”. Moreover, the “antifungal activities compared with amphotericin B (in words)” value in the data set with human pathogenic fungi is “comparable to that of amphotericin B”. Also, in the data set with chitin synthases, the “inhibitory activities” value was “exceptionally superior inhibitory activities”.
In the case of “13-(4-tert-Butylbenzyl)-9-O-propylberberrubine iodide [Compound No. 7]”, the “Relative activity Enzyme 1” value in [1] was 4 (Compounds having the inhibitory activity at 2-fold, 4-fold, 8-fold and 16-fold higher concentrations than that of polyoxin D were given the values of 4, 3, 2 and 1, respectively). In addition, the “Relative activity Enzyme 2” value in [2] was 7 (compounds having the inhibitory activity at ½, ¼ and ⅛ lower concentrations than that of polyoxin D were given the values of 6, 7 and 8, respectively). The “MIC (minimum inhibitory concentration)” value in data set [3] was determined as 8 µg/mL; in [4], 4 µg/mL; in [5], 8 µg/mL; in [6], 1 µg/mL; in data set [7] it was 1 µg/mL; in data set [8], 4 µg/mL. For the same substance, the “MIC (minimum inhibitory concentration)” value against Candida krusei ATCC 6258 turned out to be 2 µg/mL; in data set [9] it was 2 µg/mL; in [10], 4 µg/mL; in data set [11], 0.5 µg/mL; in data set [12] it was 2 µg/mL; in data set [13] it was 4 µg/mL. Also, the “antifungal activities compared with amphotericin B (in words)” value with human pathogenic fungi is given as “comparable to that of amphotericin B”. Moreover, the “inhibitory activities” value in the data set with chitin synthases was “exceptionally superior inhibitory activities”.
